Structures can show the parent of a compound that is named as a salt.

The target in the experiment is T1, human recombinant HPK1 (Homo sapiens, UniProt Q92918).
T1 construct: purchased BPS Bioscience
T1 sequence (Q92918 whole entry): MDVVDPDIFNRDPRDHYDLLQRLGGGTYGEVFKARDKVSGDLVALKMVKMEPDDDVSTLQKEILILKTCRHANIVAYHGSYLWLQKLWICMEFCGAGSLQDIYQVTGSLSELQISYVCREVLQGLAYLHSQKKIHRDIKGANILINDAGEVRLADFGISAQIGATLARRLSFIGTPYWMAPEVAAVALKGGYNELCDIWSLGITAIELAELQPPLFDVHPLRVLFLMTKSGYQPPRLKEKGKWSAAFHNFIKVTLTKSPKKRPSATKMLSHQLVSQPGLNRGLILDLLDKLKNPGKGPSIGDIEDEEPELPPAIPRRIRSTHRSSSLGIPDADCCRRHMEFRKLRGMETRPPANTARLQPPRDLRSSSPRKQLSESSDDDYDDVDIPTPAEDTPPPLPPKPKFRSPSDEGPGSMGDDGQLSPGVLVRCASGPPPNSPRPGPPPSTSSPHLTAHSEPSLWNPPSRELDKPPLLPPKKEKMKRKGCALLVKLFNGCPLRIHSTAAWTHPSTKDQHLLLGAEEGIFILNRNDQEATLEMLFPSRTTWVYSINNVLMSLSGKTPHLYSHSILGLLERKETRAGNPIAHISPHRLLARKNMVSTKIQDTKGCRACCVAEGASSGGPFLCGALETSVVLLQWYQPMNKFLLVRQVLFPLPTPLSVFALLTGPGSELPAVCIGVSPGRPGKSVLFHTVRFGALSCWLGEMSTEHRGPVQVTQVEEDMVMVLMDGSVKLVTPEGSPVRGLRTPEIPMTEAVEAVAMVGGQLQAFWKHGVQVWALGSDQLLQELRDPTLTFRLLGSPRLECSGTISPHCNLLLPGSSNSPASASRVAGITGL
The experiment is described as follows: Inhibitory activity against human recombinant HPK1 (TR-FRET). It counts as biochemical. The following applies: ULight-p70S6K peptide, ATP at Km, room temperature, 1 hour, 0.32 to 1000 nM compound. An outline of the steps: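 Recombinant human HPK1 with ULight-p70S6K peptide and ATP at Km, 1 h at room temperature in HEPES pH 7.4 buffer with Mg2+, Mn2+, EGTA, DTT; compounds 0.32–1000 nM final. EDTA stop, Eu-anti-phosphopeptide TR-FRET read (665 nm); IC50 from % inhibition versus DMSO, binned A–D at 10, 50, 100 nM.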
In the case of `COc1cc(F)cc(F)c1-c1nc(Nc2cc(N3CCC[C@H](O)C3)c(-c3cnn(C(F)F)c3)cn2)ccc1N` [Example 184, (3S)-1-(2-((5-amino-6-(2,4-difluoro-6-methoxyphenyl)pyridin-2-yl)amino)-5-(1-(difluoromethyl)-1H-pyrazol-4-yl)pyridin-4-yl)piperidin-3-ol], the IC50 (as a rule, the concentration needed to halve the response being measured) is at most 10 nM. For `COC(=O)c1cc(F)c(-c2nccc(Nc3cc(N4CCC[C@H](N)C4)c(-c4cnn(C(F)F)c4)cn3)n2)c(OC)c1` [Example 185, methyl (S)-4-(4-((4-(3-aminopiperidin-1-yl)-5-(1-(difluoromethyl)-1H-pyrazol-4-yl)pyridin-2-yl)amino)pyrimidin-2-yl)-3-fluoro-5-methoxybenzoate hydrochloride] the value was at most 10 nM.

With `CNC(=O)c1cc(F)c(-c2nccc(Nc3cc(N4CCC[C@H](N)C4)c(-c4cnn(C(F)F)c4)cn3)n2)c(OC)c1` [Example 186, (S)-4-(4-((4-(3-aminopiperidin-1-yl)-5-(1-(difluoromethyl)-1H-pyrazol-4-yl)pyridin-2-yl)amino)pyrimidin-2-yl)-3-fluoro-5-methoxy-N-methylbenzamide hydrochloride], the IC50 was at most 10 nM. Consider `COc1cc(C(=O)N(C)C)cc(F)c1-c1nccc(Nc2cc(N3CCC[C@H](N)C3)c(-c3cnn(C(F)F)c3)cn2)n1` [Example 187, (S)-4-(4-((4-(3-aminopiperidin-1-yl)-5-(1-(difluoromethyl)-1H-pyrazol-4-yl)pyridin-2-yl)amino)pyrimidin-2-yl)-3-fluoro-5-methoxy-N,N-dimethylbenzamide hydrochloride], for which the IC50 was at most 10 nM. `OC1CN(Cc2csc(-c3nccc(Nc4cc(N5CCC[C@H](O)C5)c(-c5cnn(C6CCOCC6)c5)cn4)n3)c2)C1` [Example 188, (S)-1-(2-((2-(4-((3-hydroxyazetidin-1-yl)methyl)thiophen-2-yl)pyrimidin-4-yl)amino)-5-(1-(tetrahydro-2H-pyran-4-yl)-1H-pyrazol-4-yl)pyridin-4-yl)piperidin-3-ol]: the IC50 lay within 10 to 50 nM. For `COc1cc(C=O)cc(F)c1-c1nccc(Nc2cc(N3CCC[C@H](O)C3)c(-c3cnn(C4CCOCC4)c3)cn2)n1` [Example 189, (S)-3-fluoro-4-(4-((4-(3-hydroxypiperidin-1-yl)-5-(1-(tetrahydro-2H-pyran-4-yl)-1H-pyrazol-4-yl)pyridin-2-yl)amino)pyrimidin-2-yl)-5-methoxybenzaldehyde] the value was at most 10 nM; for `CNCc1cc(F)c(-c2nccc(Nc3cc(N4CCC[C@H](O)C4)c(-c4cnn(C5CCOCC5)c4)cn3)n2)c(OC)c1` [Example 190, (S)-1-(2-((2-(2-fluoro-6-methoxy-4-((methylamino)methyl)phenyl)pyrimidin-4-yl)amino)-5-(1-(tetrahydro-2H-pyran-4-yl)-1H-pyrazol-4-yl)pyridin-4-yl)piperidin-3-ol], at most 10 nM. For `COc1cccc(F)c1-c1nc(Nc2cc(N3CCC[C@H](O)C3)c(C(N)=O)cn2)ccc1[N+](=O)[O-]` [Example 191, 6-((6-(2-fluoro-6-methoxyphenyl)-5-nitropyridin-2-yl)amino)-4-((S)-3-hydroxypiperidin-1-yl)nicotinamide] the value was at most 10 nM. In the case of `COc1cccc(F)c1-c1nccc(Nc2cc(N3CCC[C@H](O)C3)c(C(=O)N[C@@H]3CCN(C)C3)cn2)n1` [Example 192, 6-((2-(2-fluoro-6-methoxyphenyl)pyrimidin-4-yl)amino)-4-((S)-3-hydroxypiperidin-1-yl)-N-((R)-1-methylpyrrolidin-3-yl)nicotinamide], the IC50 was in the range of 10 to 50 nM. For the compound `COc1cccc(F)c1-c1nc(Nc2cc(N3CCC[C@H](O)C3)c(C(N)=O)cn2)ccc1N` [Example 193, 6-((5-amino-6-(2-fluoro-6-methoxyphenyl)pyridin-2-yl)amino)-4-((S)-3-hydroxypiperidin-1-yl)nicotinamide], the IC50 is at most 10 nM.

Regarding `COc1cccc(F)c1-c1nc(Nc2cc(N3CCC[C@H](O)C3)c(C(=O)N[C@@H]3CC[C@@H](O)C3)cn2)ccc1[N+](=O)[O-]` [Example 194, 6-((6-(2-fluoro-6-methoxyphenyl)-5-nitropyridin-2-yl)amino)-N-((1R,3R)-3-hydroxycyclopentyl)-4-((S)-3-hydroxypiperidin-1-yl)nicotinamide], the IC50 is at most 10 nM. For the compound `COc1cccc(F)c1-c1nc(Nc2cc(N3CCC[C@H](O)C3)c(C(=O)NC3CC(O)C3)cn2)ccc1[N+](=O)[O-]` (stereo partly drawn) [Example 196, 6-((6-(2-fluoro-6-methoxyphenyl)-5-nitropyridin-2-yl)amino)-N-(3-hydroxycyclobutyl)-4-((S)-3-hydroxypiperidin-1-yl)nicotinamide], the IC50 was at most 10 nM. On to `COc1cccc(F)c1-c1nc(Nc2cc(N3CCC[C@H](O)C3)c(C(=O)N[C@@H]3CC[C@H]3O)cn2)ccc1[N+](=O)[O-]` [Example 197, 6-((6-(2-fluoro-6-methoxyphenyl)-5-nitropyridin-2-yl)amino)-N-((1R,2R)-2-hydroxycyclobutyl)-4-((S)-3-hydroxypiperidin-1-yl)nicotinamide], for which the IC50 was at most 10 nM.

For the compound `COc1cccc(F)c1-c1nc(Nc2cc(N3CCC[C@H](O)C3)c(C(=O)NC3CC(F)(F)C3)cn2)ccc1[N+](=O)[O-]` [Example 198, N-(3,3-difluorocyclobutyl)-6-((6-(2-fluoro-6-methoxyphenyl)-5-nitropyridin-2-yl)amino)-4-((S)-3-hydroxypiperidin-1-yl)nicotinamide], the IC50 was at most 10 nM. In the case of `COc1cccc(F)c1-c1nc(Nc2cc(N3CCC[C@H](O)C3)c(C(=O)N[C@@H]3CC[C@@H](N)C3)cn2)ccc1[N+](=O)[O-]` [Example 199, N-((1R,3R)-3-aminocyclopentyl)-6-((6-(2-fluoro-6-methoxyphenyl)-5-nitropyridin-2-yl)amino)-4-((S)-3-hydroxypiperidin-1-yl)nicotinamide hydrochloride], the IC50 was at most 10 nM. As to `COc1cccc(F)c1-c1nc(Nc2cc(N3CCC[C@H](O)C3)c(C(=O)N[C@@H]3CC[C@H](N)C3)cn2)ccc1[N+](=O)[O-]` [Example 200, N-((1R,3S)-3-aminocyclopentyl)-6-((6-(2-fluoro-6-methoxyphenyl)-5-nitropyridin-2-yl)amino)-4-((S)-3-hydroxypiperidin-1-yl)nicotinamide], the IC50 is at most 10 nM. For `COc1cccc(F)c1-c1nc(Nc2cc(N3CCC[C@H](O)C3)c(C(=O)N[C@@H]3CC[C@@H](O)C3)cn2)ccc1N` [Example 201, 6-((5-amino-6-(2-fluoro-6-methoxyphenyl)pyridin-2-yl)amino)-N-((1R,3R)-3-hydroxycyclopentyl)-4-((S)-3-hydroxypiperidin-1-yl)nicotinamide], the concentration for half-maximal inhibition (IC50) is at most 10 nM.

For the compound `COc1cccc(F)c1-c1nc(Nc2cc(N3CCC[C@H](O)C3)c(C(=O)N[C@@H]3CC[C@H](O)C3)cn2)ccc1N` [Example 202, 6-((5-amino-6-(2-fluoro-6-methoxyphenyl)pyridin-2-yl)amino)-N-((1R,3S)-3-hydroxycyclopentyl)-4-((S)-3-hydroxypiperidin-1-yl)nicotinamide], the IC50 is at most 10 nM. As for `COc1cccc(F)c1-c1nc(Nc2cc(N3CCC[C@H](O)C3)c(C(=O)N[C@@H]3CCN(C)C3)cn2)ccc1[N+](=O)[O-]` [Example 203, 6-((6-(2-fluoro-6-methoxyphenyl)-5-nitropyridin-2-yl)amino)-4-((S)-3-hydroxypiperidin-1-yl)-N-((R)-1-methylpyrrolidin-3-yl)nicotinamide], the IC50 is at most 10 nM. Turning to `COc1cccc(F)c1-c1nccc(Nc2cc(N3CC[C@@H](C)[C@H](N)C3)c(-c3cnn(C(F)F)c3)cn2)n1` [Example 204, N-(4-((3S,4R)-3-amino-4-methylpiperidin-1-yl)-5-(1-(difluoromethyl)-1H-pyrazol-4-yl)pyridin-2-yl)-2-(2-fluoro-6-methoxyphenyl)pyrimidin-4-amine hydrochloride], the IC50 was at most 10 nM. In the case of `COc1cccc(F)c1-c1nccc(Nc2cc(N3C[C@@H](C)C[C@H](N)C3)c(-c3cnn(C(F)F)c3)cn2)n1` [Example 205, N-(4-((3S,5S)-3-amino-5-methylpiperidin-1-yl)-5-(1-(difluoromethyl)-1H-pyrazol-4-yl)pyridin-2-yl)-2-(2-fluoro-6-methoxyphenyl)pyrimidin-4-amine hydrochloride], the IC50 was at most 10 nM. For `COc1cccc(F)c1-c1nccc(Nc2cc(N3CCC[C@](C)(N)C3)c(-c3cnn(C(F)F)c3)cn2)n1` [Example 206, (S)-N-(4-(3-amino-3-methylpiperidin-1-yl)-5-(1-(difluoromethyl)-1H-pyrazol-4-yl)pyridin-2-yl)-2-(2-fluoro-6-methoxyphenyl)pyrimidin-4-amine hydrochloride] the value was at most 10 nM; for `COc1cccc(F)c1-c1nccc(Nc2cc(N3CC[C@H](F)[C@H](N)C3)c(-c3cnn(C(F)F)c3)cn2)n1` [Example 207, N-(4-((3R,4S)-3-amino-4-fluoropiperidin-1-yl)-5-(1-(difluoromethyl)-1H-pyrazol-4-yl)pyridin-2-yl)-2-(2-fluoro-6-methoxyphenyl)pyrimidin-4-amine hydrochloride], at most 10 nM; for `COc1cccc(F)c1-c1nccc(Nc2cc(N3CC[C@@H](F)[C@H](N)C3)c(-c3cnn(C(F)F)c3)cn2)n1` [Example 208, N-(4-((3R,4R)-3-amino-4-fluoropiperidin-1-yl)-5-(1-(difluoromethyl)-1H-pyrazol-4-yl)pyridin-2-yl)-2-(2-fluoro-6-methoxyphenyl)pyrimidin-4-amine hydrochloride], at most 10 nM. As to `COc1cccc(F)c1-c1nccc(Nc2cc(N3CC[C@@H](O)[C@H](N)C3)c(-c3cnn(C(F)F)c3)cn2)n1` [Example 209, (3R,4R)-3-amino-1-(5-(1-(difluoromethyl)-1H-pyrazol-4-yl)-2-((2-(2-fluoro-6-methoxyphenyl)pyrimidin-4-yl)amino)pyridin-4-yl)piperidin-4-ol hydrochloride], the IC50 was at most 10 nM.

Source of the values: patent publication US20260347338A1, “PYRIMIDINE/PYRIDINE DERIVATIVES OR SALTS THEREOF AND PHARMACEUTICAL COMPOSITIONS COMPRISING THE SAME” (YUHAN CORPORATION, priority 2023, published 2026).
